Results on 13 compounds are retold here after the SangsterLogP compilation.

Molecules are shown by their SMILES.

For orientation: logD means lipophilicity at a set pH, counting ionised and neutral species. Low values mean a more hydrophilic compound, high ones a more lipophilic compound.

The data set in a line: method code SF-AS, from PMID: 4083029. The note with it: pH 5.0.
With `Cc1cccc2nc3n(c(=O)c12)CCC3`, the logD was determined as 1.59.

Regarding `O=c1c2c(nc3n1CCCCCC3)CCC2`, the log distribution coefficient (logD) was 1.61.

For the compound `O=c1c2ccccc2nc2n1CCCC2`, the pH-dependent lipophilicity (logD) amounted to 1.49.

For `Cc1ccc2c(=O)n3c(nc2c1)CCCCC3`, the log distribution coefficient (logD) was found to be 2.44.

The compound `Cc1ccc2nc3c(c(=O)n2c1)CCCCC3` had a pH-dependent lipophilicity (logD) of 2.07.

`O=c1c2c(nc3ccccn13)CCCCC2` yielded a log distribution coefficient (logD) of 1.63.

In turn, `O=c1c2c(nc3n1CCCCCC3)CCCCC2` gave a pH-dependent lipophilicity (logD) of 2.43.

Compound `O=c1c2c(nc3ccccn13)CCCCCC2` yielded a logD of 2.29.

As to `O=c1c2c(nc3n1CCCC3)CCCCC2`, the logD stood at 1.6.

With `Cc1ccn2c(=O)c3c(nc2c1)CCCCC3`, the logD amounted to 1.86.

In turn, `O=c1c2c(nc3n1CCCCC3)CCCCCC2` gave a pH-dependent lipophilicity (logD) of 2.41.

The compound `O=c1c2c(nc3n1CCCCCC3)CCCC2` came in with a log distribution coefficient (logD) of 2.13.

Turning to `Cc1cccc2nc3c(c(=O)n12)CCCCC3`, the logD was 1.91.
